Results published in ChEMBL document CHEMBL4411298, “Small molecule-drug conjugates: A novel strategy for cancer-targeted treatment” (Eur J Med Chem, 2019).

Tests used:
[1] = Half life in pH 7.4 buffer at 37 degC in presence of 8 mM DTT; type: physicochemical; settings: pH 7.4 buffer with 8 mM DTT
[2] = Half life in pH 7.4 buffer at 37 degC in presence of GSH; type: physicochemical; settings: pH 7.4 buffer with GSH
KB [3] = experiment: Antitumor activity against human KB cells xenografted in mouse assessed as complete tumor reversion incidence at 0.5 umol/kg; type: functional
LNCaP = experiment: Growth inhibition of PSMA-positive human LNCAP cells; type: functional, cell-based
[4] = Prodrug conversion assessed as half life for parent compound release at pH 5; type: ADME
Homo sapiens [5] = species: Homo sapiens; experiment: Binding affinity to folate receptor in human KB cells after 1 hr in presence of [3H]-FA by scintillation counting assay relative to control; type: cell-based
KB [6] = experiment: Growth inhibition of human KB cells; type: functional, cell-based
[7] = Drug metabolism assessed as half life for cleavage of disulfide bond at 1 mM pH 7.4 PBS in presence of 20 mM GSH at 37 degC
Homo sapiens [8] = species: Homo sapiens; experiment: Antitumor activity against NSCLC patients assessed as progression-free survival in presence of docetaxel in phase 2b clinical trial; type: functional
Homo sapiens [9] = species: Homo sapiens; experiment: Antitumor activity against NSCLC patients assessed as overall survival in presence of docetaxel in phase 2b clinical trial; type: functional
[10] = Drug metabolism assessed as half life for cleavage of disulfide bond at 1 mM pH 7.4 PBS in presence of DTT at 37 degC
[11] = Drug metabolism assessed as half life for N-hydroxyethylvindesine release at pH 5
[12] = Drug metabolism assessed as half life for N-hydroxyethylvindesine release at pH 7.4

## CC[C@]1(O)C[C@H]2CN(CCc3c([nH]c4ccccc34)[C@@](C(=O)OC)(c3cc4c(cc3OC)N(C)[C@H]3[C@@](O)(C(=O)NNC(=O)OCc5ccc(SSC[C@H](NC(=O)[C@H](CC(=O)O)NC(=O)[C@H](CC(=O)O)NC(=O)[C@H](CCCNC(=N)N)NC(=O)[C@H](CC(=O)O)NC(=O)CC[C@H](NC(=O)c6ccc(NCc7cnc8nc(N)[nH]c(=O)c8n7)cc6)C(=O)O)C(=O)O)cc5)[C@H](O)[C@]5(CC)C=CCN6CC[C@]43[C@@H]65)C2)C1
[1]
  half-life: < 5 min
[2]
  half-life: 45 min

## CC[C@H](C)[C@H](NC(=O)[C@H]1CCCCN1C)C(=O)N(COC(=O)CC(C)C)[C@H](C[C@@H](OC(C)=O)c1nc(C(=O)N[C@@H](Cc2ccc(O)cc2)C[C@H](C)C(=O)NNC(=O)OCCSSC[C@H](NC(=O)[C@H](CC(=O)O)NC(=O)[C@H](CC(=O)O)NC(=O)[C@H](CCCNC(=N)N)NC(=O)[C@H](CC(=O)O)NC(=O)CC[C@H](NC(=O)c2ccc(NCc3cnc4nc(N)[nH]c(=O)c4n3)cc2)C(=O)O)C(=O)O)cs1)C(C)C
KB [3]
  Activity: 80%

## CCCC(=O)OCN(C(=O)[C@@H](NC(=O)[C@H]1CCCCN1C)[C@@H](C)CC)[C@H](C[C@@H](OC(C)=O)c1nc(C(=O)N[C@@H](Cc2ccc(O)cc2)C[C@H](C)C(=O)NNC(=O)OCCSSC[C@H](NC(=O)[C@H](Cc2ccccc2)NC(=O)[C@H](CC(=O)O)NC(=O)CC[C@H](NC(=O)CC[C@@H](NC(=O)N[C@@H](CCC(=O)O)C(=O)O)C(=O)O)C(=O)O)C(=O)O)cs1)C(C)C
LNCaP
  IC50: 3 nM

## CC[C@]1(O)C[C@H]2CN(CCc3c([nH]c4ccccc34)[C@@](C(=O)OC)(c3cc4c(cc3OC)N(C)[C@H]3[C@@](O)(C(=O)N/N=C(\C)c5ccc(N6C(=O)CC(SC[C@H](NC(=O)[C@H](CC(=O)O)NC(=O)[C@H](CC(=O)O)NC(=O)[C@H](CCCNC(=N)N)NC(=O)[C@H](CC(=O)O)NC(=O)CC[C@H](NC(=O)c7ccc(NCc8cnc9nc(N)[nH]c(=O)c9n8)cc7)C(=O)O)C(=O)O)C6=O)cc5)[C@H](O)[C@]5(CC)C=CCN6CC[C@]43[C@@H]65)C2)C1 (some centres undefined)
[4]
  t1/2: 330 min

## CC[C@]1(O)C[C@H]2CN(CCc3c([nH]c4ccccc34)[C@@](C(=O)OC)(c3cc4c(cc3OC)N(C)[C@H]3[C@@](O)(C(=O)NNC(=O)OC(C)C(C)SSC(C)(C)[C@H](NC(=O)[C@H](CC(=O)O)NC(=O)[C@H](CC(=O)O)NC(=O)[C@H](CCCNC(=N)N)NC(=O)[C@H](CC(=O)O)NC(=O)CC[C@H](NC(=O)c5ccc(NCc6cnc7nc(N)[nH]c(=O)c7n6)cc5)C(=O)O)C(=O)O)[C@H](O)[C@]5(CC)C=CCN6CC[C@]43[C@@H]65)C2)C1 (some centres undefined)
[1]
  half-life: > 480 min

## Nc1nc(=O)c2nc(CNc3ccc(C(=O)N[C@@H](CCC(=O)O)C(=O)O)cc3)cnc2[nH]1
Homo sapiens [5]
  relative binding affinity (RBA): 1

## CC[C@]1(O)C[C@H]2CN(CCc3c([nH]c4ccccc34)[C@@](C(=O)OC)(c3cc4c(cc3OC)N(C)[C@H]3[C@@](O)(C(=O)NNC(=O)OCCSSC[C@H](NC(=O)c5ccc(NCc6cnc7nc(N)[nH]c(=O)c7n6)cc5)C(=O)O)[C@H](O)[C@]5(CC)C=CCN6CC[C@]43[C@@H]65)C2)C1
Homo sapiens [5]
  relative binding affinity (RBA): 0.046

## CC[C@]1(O)C[C@H]2CN(CCc3c([nH]c4ccccc34)[C@@](C(=O)OC)(c3cc4c(cc3OC)N(C)[C@H]3[C@@](O)(C(=O)NNC(=O)OC(C)C(C)SSC[C@H](NC(=O)[C@H](CC(=O)O)NC(=O)[C@H](CC(=O)O)NC(=O)[C@H](CCCNC(=N)N)NC(=O)[C@H](CC(=O)O)NC(=O)CC[C@H](NC(=O)c5ccc(NCc6cnc7nc(N)[nH]c(=O)c7n6)cc5)C(=O)O)C(=O)O)[C@H](O)[C@]5(CC)C=CCN6CC[C@]43[C@@H]65)C2)C1 (some centres undefined)
[1]
  half-life: 30 min

## CCCC(=O)OCN(C(=O)[C@@H](NC(=O)[C@H]1CCCCN1C)[C@@H](C)CC)[C@H](C[C@@H](OC(C)=O)c1nc(C(=O)N[C@@H](Cc2ccc(O)cc2)C[C@H](C)C(=O)NNC(=O)OCCSSC[C@H](NC(=O)[C@H](CC(=O)O)NC(=O)[C@H](CC(=O)O)NC(=O)[C@H](CCCNC(=N)N)NC(=O)[C@H](CC(=O)O)NC(=O)CC[C@H](NC(=O)c2ccc(NCc3cnc4nc(N)[nH]c(=O)c4n3)cc2)C(=O)O)C(=O)O)cs1)C(C)C
KB [6]
  IC50: 7 nM
KB [3]
  Activity: 80%

## CC[C@]1(O)C[C@H]2CN(CCc3c([nH]c4ccccc34)[C@@](C(=O)OC)(c3cc4c(cc3OC)N(C)[C@H]3[C@@](O)(C(=O)NNC(=O)OCCSSC[C@H](NC(=O)[C@H](CC(=O)O)NC(=O)[C@H](CC(=O)O)NC(=O)[C@H](CCCNC(=N)N)NC(=O)[C@H](CC(=O)O)NC(=O)CC[C@H](NC(=O)c5ccc(NCc6cnc7nc(N)[nH]c(=O)c7n6)cc5)C(=O)O)C(=O)O)[C@H](O)[C@]5(CC)C=CCN6CC[C@]43[C@@H]65)C2)C1
Homo sapiens [5]
  relative binding affinity (RBA): 0.47
[7]
  T1/2: 60 min
Homo sapiens [8]
  Survival: 7.1 months
Homo sapiens [9]
  Survival: 10.9 months
[10]
  T1/2: 5 min

## CC[C@]1(O)C[C@H]2CN(CCc3c([nH]c4ccccc34)[C@@](C(=O)OC)(c3cc4c(cc3OC)N(C)[C@H]3[C@@](O)(C(=O)NNC(=O)OCCSSC(C)(C)[C@H](NC(=O)[C@H](CC(=O)O)NC(=O)[C@H](CC(=O)O)NC(=O)[C@H](CCCNC(=N)N)NC(=O)[C@H](CC(=O)O)NC(=O)CC[C@H](NC(=O)c5ccc(NCc6cnc7nc(N)[nH]c(=O)c7n6)cc5)C(=O)O)C(=O)O)[C@H](O)[C@]5(CC)C=CCN6CC[C@]43[C@@H]65)C2)C1
[1]
  half-life: 60 min

## CC[C@]1(O)C[C@H]2CN(CCc3c([nH]c4ccccc34)[C@@](C(=O)OC)(c3cc4c(cc3OC)N(C)[C@H]3[C@@](O)(C(=O)NCCOC(OC)c5ccc(OCCN6C(=O)CC(SC[C@H](NC(=O)[C@H](CC(=O)O)NC(=O)[C@H](CC(=O)O)NC(=O)[C@H](CCCNC(=N)N)NC(=O)[C@H](CC(=O)O)NC(=O)CC[C@H](NC(=O)c7ccc(NCc8cnc9nc(N)[nH]c(=O)c9n8)cc7)C(=O)O)C(=O)O)C6=O)cc5)[C@H](O)[C@]5(CC)C=CCN6CC[C@]43[C@@H]65)C2)C1 (some centres undefined)
[11]
  T1/2: 25 min
[12]
  T1/2: 1320 min
